Data as given in patent publication US10662156B2, “Guanidine derivative and medical use thereof” (Toray Industries, Inc., priority 2016, dated 2020).
pIC50: −log10 of the molar value. Counter-ions that a name gives are not always drawn.

Biological target: recombinant GST fusion MALT1 (human MALT1) (Homo sapiens (Human), UniProt Q9UDY8)
Test: Evaluation of inhibition of protease activity of MALT1 (cleavage of fluorescent peptide substrate Ac-LRSR-AMC)
Assay type: biochemical
Settings: substrate Ac-LRSR-AMC 20 μmol/L, 30° C. for 80 minutes
Procedure: The guanidine derivative (I) or the pharmacologically acceptable salt thereof was evaluated for its inhibition of the protease activity of MALT1 in an in vitro experimental system in accordance with the method described in the literature (Cancer Cell, 2012, Vol. 22, p. 825-837). Specifically, the evaluation was conducted by measuring the degree of reduction in fluorescence value by the compound relative to elevation in fluorescence value resulting from the cleavage of a fluorescently labeled artificial peptide substrate by recombinant MALT1.
A) Preparation of Recombinant GST Fusion MALT1:
Full-length cDNA of human MALT1 gene (GenBank accession No: AB026118.1) amplified by PCR was inserted in flame to a SalI site located downstream of GST gene in a pGEX6P3 vector (GE Healthcare Japan Corp.) to prepare a vector (hereinafter, referred to as a pGEX6P3-MALT1 vector). Subsequently, E. coli for protein expression (BL21-RIL-codon plus-DE3, Agilent Technologies, Inc.) was transformed with the pGEX6P3-MALT1 vector and then analyzed by ampicillin resistance screening and colony PCR to obtain an E. coli strain expressing recombinant GST fusion MALT1. Protein expression was induced with isopropyl-(3-thiogalactopyranoside. After the expression induction, E. coli precipitates were recovered by centrifugation from the E. coli culture solution, and the E. coli precipitates were homogenized and then centrifuged to obtain a supernatant. The supernatant was purified using GSTrap FF column (GE Healthcare Japan Corp.) to obtain recombinant GST fusion MALT1.
B) Evaluation of Inhibition of Protease Activity of MALT1:
To 89 μL of an enzyme solution ([…] GST fusion MALT1, 50 mmol/L MES, 150 mmol/L NaCl, 10% sucrose, 0.1% CHAPS, 10 mmol/L dithiothreitol, and 1 mol/L tri-ammonium citrate) per specimen, 1 μL of a test compound (DMSO-diluted solution) of each concentration was added to prepare a mixed solution. The mixed solution was incubated at room temperature for 30 minutes, followed by the measurement of the fluorescence value of the mixed solution (fluorescence value of the first measurement) (Ex: 380 nm, Em: 460 nm; Envision (Perkin Elmer Inc.)). Next, 10 μL of 200 μmol/L substrate (Ac-LRSR-AMC, SM Biochemicals LLC) was added (final concentration: 20 μmol/L) to the mixed solution, and the mixture was reacted by incubation at 30° C. for 80 minutes, followed by the measurement of the fluorescence value of the reaction solution (fluorescence value of the second measurement) (Ex: 380 nm, Em: 460 nm; Envision (Perkin Elmer Inc.)). A “well nonsupplemented with the test compound (only DMSO was added), nonsupplemented with the enzyme and supplemented with the substrate”, and a “well nonsupplemented with the test compound (only DMSO was added), supplemented with the enzyme and supplemented with the substrate” were established.
The fluorescence value of the first measurement was defined as “F1”, and the fluorescence value of the second measurement was defined as “F2”. F2−F1 of the “well nonsupplemented with the test compound (only DMSO was added), nonsupplemented with the enzyme and supplemented with the substrate” was defined as “Fback”, F2−F1 of the “well nonsupplemented with the test compound (only DMSO was added), supplemented with the enzyme and supplemented with the substrate” was defined as “Fpositive”, and F2−F1 of the “well supplemented with the test compound, supplemented with the enzyme and supplemented with the substrate” was defined as “Fsample”. The rate of inhibition (%) of the protease activity of MALT1 by the test compound was calculated according to the following expression. Rate of inhibition (%)=100×(1−(Fsample−Fback)/(Fpositive−Fback))

recombinant GST fusion MALT1 (human MALT1), sequence (Q9UDY8 whole entry, the tested form may be a part): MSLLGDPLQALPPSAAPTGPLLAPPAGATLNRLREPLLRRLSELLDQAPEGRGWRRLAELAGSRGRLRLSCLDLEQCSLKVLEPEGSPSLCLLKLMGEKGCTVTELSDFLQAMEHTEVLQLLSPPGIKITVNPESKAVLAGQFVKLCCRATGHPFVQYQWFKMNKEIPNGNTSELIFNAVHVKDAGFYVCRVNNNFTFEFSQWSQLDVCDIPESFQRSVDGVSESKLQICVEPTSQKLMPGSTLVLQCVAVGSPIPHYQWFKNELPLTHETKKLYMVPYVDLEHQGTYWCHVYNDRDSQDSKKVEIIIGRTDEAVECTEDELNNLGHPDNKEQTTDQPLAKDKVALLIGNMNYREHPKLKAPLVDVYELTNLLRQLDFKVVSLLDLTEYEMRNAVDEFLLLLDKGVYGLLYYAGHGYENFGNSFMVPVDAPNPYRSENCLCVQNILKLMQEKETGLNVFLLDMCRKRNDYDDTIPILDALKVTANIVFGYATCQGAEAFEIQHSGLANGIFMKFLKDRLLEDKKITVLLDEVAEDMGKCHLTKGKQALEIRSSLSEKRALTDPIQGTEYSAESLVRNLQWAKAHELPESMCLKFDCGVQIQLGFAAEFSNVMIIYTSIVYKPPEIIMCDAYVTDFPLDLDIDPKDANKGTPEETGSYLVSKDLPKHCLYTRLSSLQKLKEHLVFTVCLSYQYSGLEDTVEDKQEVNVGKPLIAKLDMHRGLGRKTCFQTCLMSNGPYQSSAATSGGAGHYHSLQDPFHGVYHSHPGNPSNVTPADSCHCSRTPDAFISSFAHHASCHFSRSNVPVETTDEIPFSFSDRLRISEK

Row | pIC50 | Structure (SMILES)
1 | 6.77 | N/C(=N\S(=O)(=O)c1ccc(Cl)s1)NCc1cnc(-c2ccc(Cl)cc2)c(-c2ccc(Cl)cc2)c1 [Compound of Example 54, N-(amino(((5,6-bis(4-chlorophenyl)pyridin-3-yl)methyl)amino)methylene)-5-chlorothiophene-2-sulfonamide]
2 | 6.74 | N/C(=N\S(=O)(=O)c1cc2ccccc2s1)NCc1cnc(-c2ccc(Cl)cc2)c(-c2ccc(Cl)cc2)c1 [Compound of Example 55, N-(amino(((5,6-bis(4-chlorophenyl)pyridin-3-yl)methyl)amino)methylene)benzo[b]thiophene-2-sulfonamide]
3 | 6.37 | N/C(=N\S(=O)(=O)C1CCCCC1)NCc1cnc(-c2ccc(Cl)cc2)c(-c2ccc(Cl)cc2)c1 [Compound of Example 56, N-(amino(((5,6-bis(4-chlorophenyl)pyridin-3-yl)methyl)amino)methylene)cyclohexanesulfonamide]
4 | 6.29 | N/C(=N\S(=O)(=O)C1CCCC1)NCc1cnc(-c2ccc(Cl)cc2)c(-c2ccc(Cl)cc2)c1 [Compound of Example 57, N-(amino(((5,6-bis(4-chlorophenyl)pyridin-3-yl)methyl)amino)methylene)cyclopentanesulfonamide]
5 | 6.13 | N/C(=N\S(=O)(=O)C1CC1)NCc1cnc(-c2ccc(Cl)cc2)c(-c2ccc(Cl)cc2)c1 [Compound of Example 58, N-(amino(((5,6-bis(4-chlorophenyl)pyridin-3-yl)methyl)amino)methylene)cyclopropanesulfonamide]
6 | 6.13 | N/C(=N\S(=O)(=O)Cc1ccccc1)NCc1cnc(-c2ccc(Cl)cc2)c(-c2ccc(Cl)cc2)c1 [Compound of Example 59, N-(amino(((5,6-bis(4-chlorophenyl)pyridin-3-yl)methyl)amino)methylene)-1-phenylmethanesulfonamide]
7 | 5.88 | CN(C)S(=O)(=O)/N=C(\N)NCc1cnc(-c2ccc(Cl)cc2)c(-c2ccc(Cl)cc2)c1 [Compound of Example 60, ((2-amino-2-(((5,6-bis(4-chlorophenyl)pyridin-3-yl)methyl)amino)-1-azavinyl)sulfonyl)dimethylamine]
8 | 6.39 | N/C(=N\C(=O)c1nccs1)NCc1cnc(-c2ccc(Cl)cc2)c(-c2ccc(Cl)cc2)c1 [Compound of Example 61, N-(amino(((5,6-bis(4-chlorophenyl)pyridin-3-yl)methyl)amino)methylene)thiazole-2-carboxamide]
9 | 6.33 | N#Cc1ccc(C(=O)/N=C(\N)NCc2cnc(-c3ccc(Cl)cc3)c(-c3ccc(Cl)cc3)c2)cc1 [Compound of Example 62, N-(amino(((5,6-bis(4-chlorophenyl)pyridin-3-yl)methyl)amino)methylene)-4-cyanobenzamide]
10 | 6.19 | COCC(=O)/N=C(\N)NCc1cnc(-c2ccc(Cl)cc2)c(-c2ccc(Cl)cc2)c1 [Compound of Example 63, N-(amino(((5,6-bis(4-chlorophenyl)pyridin-3-yl)methyl)amino)methylene)-2-methoxyacetamide]
11 | 6.34 | CCCCCC(=O)/N=C(\N)NCc1cnc(-c2ccc(Cl)cc2)c(-c2ccc(Cl)cc2)c1 [Compound of Example 65, N-(amino(((5,6-bis(4-chlorophenyl)pyridin-3-yl)methyl)amino)methylene)hexanamide]
12 | 5.95 | N/C(=N\C(=O)c1ccc(F)cc1)NCc1cnc(-c2ccc(Cl)cc2)c(-c2ccc(Cl)cc2)c1 [Compound of Example 66, N-(amino(((5,6-bis(4-chlorophenyl)pyridin-3-yl)methyl)amino)methylene)-4-fluorobenzamide]
13 | 6.19 | N/C(=N\C(=O)c1ccccc1F)NCc1cnc(-c2ccc(Cl)cc2)c(-c2ccc(Cl)cc2)c1 [Compound of Example 67, N-(amino(((5,6-bis(4-chlorophenyl)pyridin-3-yl)methyl)amino)methylene)-2-fluorobenzamide]
14 | 6.24 | N/C(=N\C(=O)c1ccsc1)NCc1cnc(-c2ccc(Cl)cc2)c(-c2ccc(Cl)cc2)c1 [Compound of Example 68, N-(amino(((5,6-bis(4-chlorophenyl)pyridin-3-yl)methyl)amino)methylene)thiophene-3-carboxamide]
15 | 6.11 | COc1ccc(C(=O)/N=C(\N)NCc2cnc(-c3ccc(Cl)cc3)c(-c3ccc(Cl)cc3)c2)cc1 [Compound of Example 69, N-(amino(((5,6-bis(4-chlorophenyl)pyridin-3-yl)methyl)amino)methylene)-4-methoxybenzamide]
16 | 6.47 | N/C(=N\C(=O)C1CCCC1)NCc1cnc(-c2ccc(Cl)cc2)c(-c2ccc(Cl)cc2)c1 [Compound of Example 70, N-(amino(((5,6-bis(4-chlorophenyl)pyridin-3-yl)methyl)amino)methylene)cyclopentanecarboxamide]
17 | 6.25 | N/C(=N\C(=O)C1CC1)NCc1cnc(-c2ccc(Cl)cc2)c(-c2ccc(Cl)cc2)c1 [Compound of Example 71, N-(amino(((5,6-bis(4-chlorophenyl)pyridin-3-yl)methyl)amino)methylene)cyclopropanecarboxamide]
18 | 6.52 | N/C(=N\C(=O)C1CCCCC1)NCc1cnc(-c2ccc(Cl)cc2)c(-c2ccc(Cl)cc2)c1 [Compound of Example 73, N-(amino(((5,6-bis(4-chlorophenyl)pyridin-3-yl)methyl)amino)methylene)cyclohexanecarboxamide Hydrochloride]
19 | 6.53 | N/C(=N\C(=O)CCc1ccccc1)NCc1cnc(-c2ccc(Cl)cc2)c(-c2ccc(Cl)cc2)c1 [Compound of Example 74, N-(amino(((5,6-bis(4-chlorophenyl)pyridin-3-yl)methyl)amino)methylene)-3-phenylpropanamide]
20 | 6.45 | N/C(=N\C(=O)Cc1ccccc1)NCc1cnc(-c2ccc(Cl)cc2)c(-c2ccc(Cl)cc2)c1 [Compound of Example 75, N-(amino(((5,6-bis(4-chlorophenyl)pyridin-3-yl)methyl)amino)methylene)-2-phenylacetamide]
21 | 5.82 | N/C(=N\C(=O)c1ccc(Cl)cc1)NCc1cnc(-c2ccc(Cl)cc2)c(-c2ccc(Cl)cc2)c1 [Compound of Example 76, N-(amino(((5,6-bis(4-chlorophenyl)pyridin-3-yl)methyl)amino)methylene)-4-chlorobenzamide]
22 | 6.09 | N/C(=N\C(=O)c1ccc(C(F)(F)F)cc1)NCc1cnc(-c2ccc(Cl)cc2)c(-c2ccc(Cl)cc2)c1 [Compound of Example 77, N-(amino(((5,6-bis(4-chlorophenyl)pyridin-3-yl)methyl)amino)methylene)-4-trifluoromethylbenzamide]
23 | 6.12 | N/C(=N\C(=O)c1ccco1)NCc1cnc(-c2ccc(Cl)cc2)c(-c2ccc(Cl)cc2)c1 [Compound of Example 78, N-(amino(((5,6-bis(4-chlorophenyl)pyridin-3-yl)methyl)amino)methylene)furan-2-carboxamide]
24 | 5.73 | CN(C)C(=O)/N=C(\N)NCc1cnc(-c2ccc(Cl)cc2)c(-c2ccc(Cl)cc2)c1 [Compound of Example 79, 3-(amino(((5,6-bis(4-chlorophenyl)pyridin-3-yl)methyl)amino)methylene)-1,1-dimethylurea]
25 | 6.27 | CCOC(=O)/N=C(\N)NCc1cnc(-c2ccc(Cl)cc2)c(-c2ccc(Cl)cc2)c1 [Compound of Example 81, 1-((5,6-bis(4-chlorophenyl)pyridin-3-yl)methyl)-2-(ethoxycarbonyl)guanidine Hydrochloride]
26 | 6.13 | N/C(=N\C(=O)c1ccccn1)NCc1cnc(-c2ccc(Cl)cc2)c(-c2ccc(Cl)cc2)c1 [Compound of Example 82, N-(amino(((5,6-bis(4-chlorophenyl)pyridin-3-yl)methyl)amino)methylene)picolinamide]
